Assay results: PubChem BioAssay AID330 (DTP/NCI, 2004)
Several values for one entry are separate records, joined by “and”; a condition that tells them apart may be missing. Identical values can stand only once. Inconclusive results and toxic doses are left out.

System: P388 leukemia ip, CD2F1 mice, survival T/C
Assay: NCI In Vivo Anticancer Drug Screen. Data for tumor model P388 Leukemia (intraperitoneal) in CD2F1 (CDF1) mice
Conditions: endpoint: median survival time, higher = longer survival
Outline: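 Mice carrying the transplanted tumor received test compound or vehicle. Survival was recorded in each group, and the value is the treated-group measurement divided by that of the vehicle-treated control group.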

[1] = dose: 60.0 mg/kg/injection, schedule: Q01DX005 (ip), vehicle: saline with Tween-80
[2] = dose: 120.0 mg/kg/injection, schedule: Q01DX005 (ip), vehicle: saline with Tween-80
[3] = dose: 240.0 mg/kg/injection, schedule: Q01DX005 (ip), vehicle: saline with Tween-80
[4] = dose: 50.0 mg/kg/injection, schedule: Q01DX005 (ip), vehicle: saline
[5] = dose: 100.0 mg/kg/injection, schedule: Q01DX005 (ip), vehicle: saline
[6] = dose: 200.0 mg/kg/injection, schedule: Q01DX005 (ip), vehicle: saline
[7] = dose: 50.0 mg/kg/injection, schedule: Q01DX009 (ip), vehicle: saline
[8] = dose: 100.0 mg/kg/injection, schedule: Q01DX009 (ip), vehicle: saline
[9] = dose: 200.0 mg/kg/injection, schedule: Q01DX009 (ip), vehicle: saline
[10] = dose: 400.0 mg/kg/injection, schedule: Q01DX009 (ip), vehicle: saline
[11] = dose: 100.0 mg/kg/injection, schedule: Q01DX009 (ip), vehicle: saline with Tween-80
[12] = dose: 200.0 mg/kg/injection, schedule: Q01DX009 (ip), vehicle: saline with Tween-80
[13] = dose: 50.0 mg/kg/injection, schedule: Q01DX005 (ip), vehicle: saline with Tween-80
[14] = dose: 100.0 mg/kg/injection, schedule: Q01DX005 (ip), vehicle: saline with Tween-80
[15] = dose: 200.0 mg/kg/injection, schedule: Q01DX005 (ip), vehicle: saline with Tween-80
[16] = dose: 50.0 mg/kg/injection, schedule: Q01DX009 (ip), vehicle: saline with Tween-80
[17] = dose: 50.0 mg/kg/injection, schedule: Q01DX005 (ip), vehicle: Klucel (hydroxypropylcellulose) (HPC)
[18] = dose: 100.0 mg/kg/injection, schedule: Q01DX005 (ip), vehicle: Klucel (hydroxypropylcellulose) (HPC)
[19] = dose: 200.0 mg/kg/injection, schedule: Q01DX005 (ip), vehicle: Klucel (hydroxypropylcellulose) (HPC)

Structure (SMILES): CCCCCCCCCCCCCCCCN(C(C)C)S(=O)(=O)c1ccc(Cl)c([N+](=O)[O-])c1
- T/C (dose: 50.0 mg/kg/injection, schedule: Q04DX003 (ip), vehicle: saline sonified): 90 % of control
- T/C (dose: 100.0 mg/kg/injection, schedule: Q04DX003 (ip), vehicle: saline sonified): 95 % of control
- T/C (dose: 200.0 mg/kg/injection, schedule: Q04DX003 (ip), vehicle: saline sonified): 95 % of control

Structure (SMILES): O=C1CCC(c2n[nH]c(=S)n2-c2ccccc2)N1Cc1ccccc1 (stereo unspecified)
- T/C [1]: 101 % of control
- T/C [2]: 94 % of control
- T/C [3]: 90 % of control

Structure (SMILES): c1ccc(CN2COC3CCCCCCC32)cc1 (stereo unspecified)
- T/C [4]: 104 % of control
- T/C [5]: 112 % of control
- T/C [6]: 114 % of control

Structure (SMILES): CCCC(N)P(=O)(O)O (stereo unspecified)
- T/C [7]: 99 % of control
- T/C [8]: 93 % of control
- T/C [9]: 96 % of control
- T/C [10]: 93 % of control

Structure (SMILES): CC(=O)N1NC(=O)c2c(c3cc(OCc4ccccc4)ccc3n2C)C1C(C)C (stereo unspecified)
- T/C (dose: 30.0 mg/kg/injection, schedule: Q04DX002 (ip), vehicle: Klucel (hydroxypropylcellulose) (HPC)): 98 % of control
- T/C (dose: 60.0 mg/kg/injection, schedule: Q04DX002 (ip), vehicle: Klucel (hydroxypropylcellulose) (HPC)): 96 % of control
- T/C (dose: 120.0 mg/kg/injection, schedule: Q04DX002 (ip), vehicle: Klucel (hydroxypropylcellulose) (HPC)): 96 % of control

Structure (SMILES): Nc1nc(N)nc(N)n1
- T/C [11]: 106 % of control
- T/C [12]: 107 % of control
- T/C (dose: 400.0 mg/kg/injection, schedule: Q01DX009 (ip), vehicle: saline with Tween-80): 99 % of control
- T/C (dose: 800.0 mg/kg/injection, schedule: Q01DX009 (ip), vehicle: saline with Tween-80): 96 % of control

Structure (SMILES): Cc1nc2c(N)n[nH]c(=O)n2n1
- T/C [1]: 103 % of control
- T/C [2]: 100 % of control
- T/C [3]: 99 % of control

Structure (SMILES): CC1(C)COCN(C2CCCCC2)C1
- T/C (dose: 15.0 mg/kg/injection, schedule: Q01DX009 (ip), vehicle: saline with Tween-80): 119 % of control
- T/C (dose: 30.0 mg/kg/injection, schedule: Q01DX009 (ip), vehicle: saline with Tween-80): 100 % of control
- T/C (dose: 60.0 mg/kg/injection, schedule: Q01DX009 (ip), vehicle: saline with Tween-80): 108 % of control

Structure (SMILES): CCOC(=O)CCc1c(-c2ccccc2)[nH]c2ccccc12
- T/C [1]: 106 % of control
- T/C [2]: 107 % of control
- T/C [3]: 101 % of control

Structure (SMILES): O=P(N1CCCC1)(N1CCCC1)N1CCCC1
- T/C [7]: 100 % of control
- T/C [8]: 102 % of control and 107 % of control
- T/C [9]: 101 % of control
- T/C [10]: 103 % of control

Structure (SMILES): COc1ccc(S(=O)(=O)N/N=C/c2cc(I)cc([N+](=O)[O-])c2O)cc1
- T/C [13]: 102 % of control
- T/C [14]: 100 % of control
- T/C [15]: 104 % of control

Structure (SMILES): N#CC1C(=O)NC(=O)C(C#N)C1c1ccncc1 (stereo unspecified)
- T/C (dose: 50.0 mg/kg/injection, schedule: Q01DX009 (ip), vehicle: Klucel (hydroxypropylcellulose) (HPC)): 103 % of control
- T/C (dose: 100.0 mg/kg/injection, schedule: Q01DX009 (ip), vehicle: Klucel (hydroxypropylcellulose) (HPC)): 104 % of control
- T/C (dose: 200.0 mg/kg/injection, schedule: Q01DX009 (ip), vehicle: Klucel (hydroxypropylcellulose) (HPC)): 103 % of control

Structure (SMILES): COc1cc2c3c(n(C)c(=O)c2cc1OC)-c1cc2c(cc1C3=O)OCO2
- T/C (dose: 2.0 mg/kg/injection, schedule: Q01DX009 (ip), vehicle: distilled water + Tween-80): 98 % of control
- T/C (dose: 4.0 mg/kg/injection, schedule: Q01DX009 (ip), vehicle: distilled water + Tween-80): 100 % of control
- T/C (dose: 8.0 mg/kg/injection, schedule: Q01DX009 (ip), vehicle: distilled water + Tween-80): 107 % of control
- T/C (dose: 16.0 mg/kg/injection, schedule: Q01DX009 (ip), vehicle: distilled water + Tween-80): 98 % of control
- T/C (dose: 32.0 mg/kg/injection, schedule: Q01DX009 (ip), vehicle: distilled water + Tween-80): 100 % of control
- T/C (dose: 64.0 mg/kg/injection, schedule: Q01DX009 (ip), vehicle: distilled water + Tween-80): 99 % of control and 109 % of control
- T/C (dose: 128.0 mg/kg/injection, schedule: Q01DX009 (ip), vehicle: distilled water + Tween-80): 111 % of control and 123 % of control
- T/C (dose: 256.0 mg/kg/injection, schedule: Q01DX009 (ip), vehicle: distilled water + Tween-80): 100 % of control and 92 % of control

Structure (SMILES): COc1ccc(Cc2cc(C(C)(C)C)c(O)c(C(C)(C)C)c2)cc1
- T/C (dose: 50.0 mg/kg/injection, schedule: Q01DX005 (ip), vehicle: distilled water + alcohol): 104 % of control
- T/C (dose: 100.0 mg/kg/injection, schedule: Q01DX005 (ip), vehicle: distilled water + alcohol): 100 % of control
- T/C (dose: 200.0 mg/kg/injection, schedule: Q01DX005 (ip), vehicle: distilled water + alcohol): 93 % of control

Structure (SMILES): Cc1[nH]ccc2c(C)c3nc4ccc(O)cc4c3cc12
- T/C (dose: 40.0 mg/kg/injection, schedule: Q04DX002 (ip), vehicle: water): 157 % of control

Structure (SMILES): O=C1NC(=O)C2(F)CC3(CCCCC3)C2N1 (stereo unspecified)
- T/C (dose: 1.5 mg/kg/injection, schedule: Q01DX005 (ip), vehicle: Klucel (hydroxypropylcellulose) (HPC)): 100 % of control
- T/C (dose: 3.0 mg/kg/injection, schedule: Q01DX005 (ip), vehicle: Klucel (hydroxypropylcellulose) (HPC)): 102 % of control
- T/C (dose: 6.0 mg/kg/injection, schedule: Q01DX005 (ip), vehicle: Klucel (hydroxypropylcellulose) (HPC)): 94 % of control
- T/C (dose: 12.5 mg/kg/injection, schedule: Q01DX001 (ip), vehicle: Klucel (hydroxypropylcellulose) (HPC)): 103 % of control

Structure (SMILES): O=c1c2ccccc2ncn1C12CC3CC(CC(C3)C1)C2
- T/C (dose: 100.0 mg/kg/injection, schedule: Q04DX002 (ip), vehicle: Klucel (hydroxypropylcellulose) (HPC)): 105 % of control
- T/C (dose: 200.0 mg/kg/injection, schedule: Q04DX002 (ip), vehicle: Klucel (hydroxypropylcellulose) (HPC)): 100 % of control
- T/C (dose: 400.0 mg/kg/injection, schedule: Q04DX002 (ip), vehicle: Klucel (hydroxypropylcellulose) (HPC)): 100 % of control

Structure (SMILES): CCOc1ccc(NC2OC(CO)C(O)C(O)C2NC(C)=O)cc1 (stereo unspecified)
- T/C [13]: 105 % of control
- T/C [14]: 101 % of control
- T/C [15]: 96 % of control

Structure (SMILES): COC1(OC)C(C#N)=C(c2ccccc2)C1(OC)OC
- T/C (dose: 60.0 mg/kg/injection, schedule: Q01DX005 (ip), vehicle: Klucel (hydroxypropylcellulose) (HPC)): 115 % of control
- T/C (dose: 120.0 mg/kg/injection, schedule: Q01DX005 (ip), vehicle: Klucel (hydroxypropylcellulose) (HPC)): 102 % of control
- T/C (dose: 240.0 mg/kg/injection, schedule: Q01DX005 (ip), vehicle: Klucel (hydroxypropylcellulose) (HPC)): 101 % of control

Structure (SMILES): Cc1ccc(/C=N/NC(=O)C(=O)Nc2ccc(Cl)c([N+](=O)[O-])c2)cc1
- T/C (dose: 6.25 mg/kg/injection, schedule: Q01DX005 (ip), vehicle: saline with Tween-80): 88 % of control
- T/C (dose: 12.5 mg/kg/injection, schedule: Q01DX005 (ip), vehicle: saline with Tween-80): 95 % of control

Structure (SMILES): O=c1cnn2c(n1)OC1C(O)C(CO)OC12 (stereo unspecified)
- T/C [16]: 97 % of control
- T/C [11]: 97 % of control
- T/C [12]: 93 % of control

Structure (SMILES): CN(CCC#N)c1ccc(/C=C(\C#N)c2cccc(C(F)(F)F)c2)cc1
- T/C [17]: 105 % of control
- T/C [18]: 90 % of control
- T/C [19]: 96 % of control

Structure (SMILES): COC1OC(CO)C(O)C(NC(=O)N(C)N=O)C1O (stereo unspecified)
- T/C [8]: 169 % of control and 187 % of control
- T/C [9]: 218 % of control and 232 % of control
- T/C [10]: 105 % of control and 117 % of control

Structure (SMILES): COc1cc(C(=O)N/N=C/c2cccc3ccccc23)ccc1O
- T/C [16]: 86 % of control
- T/C [11]: 90 % of control
- T/C [12]: 90 % of control

Structure (SMILES): O=C(O)COc1cccc2c(=O)cc(-c3ccccc3)oc12
- T/C [4]: 102 % of control
- T/C [5]: 101 % of control
- T/C [6]: 99 % of control

Structure (SMILES): COC1OC(CO)C(O)C(O)C1O (stereo unspecified)
- T/C [7]: 100 % of control
- T/C [8]: 94 % of control and 104 % of control
- T/C (dose: 100.0 mg/kg/injection, schedule: Q04DX003 (ip), vehicle: saline): 109 % of control
- T/C [9]: 101 % of control and 100 % of control
- T/C (dose: 200.0 mg/kg/injection, schedule: Q04DX003 (ip), vehicle: saline): 95 % of control
- T/C [10]: 106 % of control and 101 % of control
- T/C (dose: 400.0 mg/kg/injection, schedule: Q04DX003 (ip), vehicle: saline): 95 % of control

Structure (SMILES): CCOC(=O)C(=NNc1cc(OC)c(Cl)cc1OC)C(=O)OCC
- T/C [17]: 94 % of control
- T/C [18]: 94 % of control
- T/C [19]: 94 % of control
